IC50 data for eight compounds are collected here from patent publication US20240376085A1 (Janssen Pharmaceutica NV, priority 2021, published 2024).

In one experiment the target is T1, IL-17A : IL-17RA binding (Homo sapiens, UniProt Q16552, K93Q).
T1 construct: Name: IL-17A-Flag
Description: IL-17A(FLAG-tagged):IL-17RA(His-tagged) binding disruption Eu-HTRF assay, Protocol 1. The conditions noted are these: FLAG-IL-17A 2.5 nM at 2x final concentration; average if tested more than once. A digest of the protocol:
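IC50 came from a one-site competition fit of the acceptor/donor (665/620 nm) HTRF ratio. His-tagged IL-17RA, Eu-anti-FLAG and D2-anti-His were added after a 1 h rt compound preincubation with FLAG-tagged IL-17A dimer in PBS/0.01% Triton X-100, followed by 2 h at rt before reading.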

Experiment [1] concerns IL-17A-induced G-CSF production in human normal keratinocyte (NHK). Description: NHK assay: IL-17A-induced G-CSF production in normal human keratinocytes. The class given is cell-based. The conditions noted are these: 24 h, IL-17A 5 ng/mL, average if tested more than once. The gist of the method:
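IC50 derives from G-CSF in supernatants, quantified by HTRF from a standard curve, with CellTiter-Glo viability compared to DMSO control. Before a 24 h, 37°C culture of normal human keratinocytes at 3000–4000 cells/well, compound dilutions were preincubated 1 h at rt with human IL-17A (5 ng/mL final), with 0.2% DMSO and 5% FBS.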

T1 sequence (Q16552 with tags, fused parts or gaps K93Q): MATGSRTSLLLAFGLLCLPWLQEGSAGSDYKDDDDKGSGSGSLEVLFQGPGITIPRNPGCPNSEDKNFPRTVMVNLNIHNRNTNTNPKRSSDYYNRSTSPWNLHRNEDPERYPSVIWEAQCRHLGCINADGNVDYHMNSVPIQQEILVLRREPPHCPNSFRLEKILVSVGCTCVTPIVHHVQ

For `C[C@@H](NC(=O)CCC(F)(F)F)c1ccc2[nH]c([C@@H](NC(=O)[C@@H]3C[C@H]3C#N)C3CCC(F)(F)CC3)nc2c1` (relative stereo) [Example 104, trans-(1R*,2R*)-2-Cyano-N—((S)-(4,4-difluorocyclohexyl)(5-((R)-1-(4,4,4-trifluorobutanamido)ethyl)-1H-benzo[d]imidazol-2-yl)methyl)cyclopropane-1-carboxamide], the IC50 at IL-17A : IL-17RA binding was above 100 nM; in experiment [1] (Homo sapiens, Keratinocyte), above 100 nM.

As to `C[C@@H](NC(=O)CCC(F)(F)F)c1ccc2[nH]c([C@@H](NC(=O)c3cn(CCC(F)(F)F)cn3)C3CCC(F)(F)CC3)nc2c1` [Example 226, N—((S)-(4,4-Difluorocyclohexyl)(5-((R)-1-(4,4,4-trifluorobutanamido)ethyl)-1H-benzo[d]imidazol-2-yl)methyl)-1-(3,3,3-trifluoropropyl)-1H-imidazole-4-carboxamide], the IC50 at IL-17A : IL-17RA binding was above 100 nM; in experiment [1] (Homo sapiens, Keratinocyte), above 100 nM.

Regarding `C[C@@H](NC(=O)CCC(F)(F)F)c1ccc2[nH]c([C@@H](NC(=O)c3cnc(CCC(F)(F)F)s3)C3CCC(F)(F)CC3)nc2c1` [Example 222, N—((S)-(4,4-Difluorocyclohexyl)(5-((R)-1-(4,4,4-trifluorobutanamido)ethyl)-1H-benzo[d]imidazol-2-yl)methyl)-2-(3,3,3-trifluoropropyl)thiazole-5-carboxamide], the IC50 at IL-17A : IL-17RA binding was above 100 nM; in experiment [1] (Homo sapiens, Keratinocyte), above 100 nM.

Consider `CC(NC(=O)CCC(F)(F)F)c1ccc2nc([C@H](CC(C)(C)C(F)(F)F)NC(=O)c3ccnn3CCC(F)(F)F)[nH]c2c1` (single isomer, unassigned) [Example 230, N—((S)-4,4,4-Trifluoro-3,3-dimethyl-1-(6-((R*)-1-(4,4,4-trifluorobutanamido)ethyl)-1H-benzo[d]imidazol-2-yl)butyl)-1-(3,3,3-trifluoropropyl)-1H-pyrazole-5-carboxamide], for which the IC50 was above 100 nM at IL-17A : IL-17RA binding and 50 to 100 nM in experiment [1].

On to `C[C@@H](NC(=O)CCC(F)(F)F)c1ccc2[nH]c([C@@H](NC(=O)c3ccnn3C)C3CCC(F)(F)CC3)nc2c1` [Example 118, N—((S)-(4,4-Difluorocyclohexyl)(5-((R)-1-(4,4,4-trifluorobutanamido)ethyl)-1H-benzo[d]imidazol-2-yl)methyl)-1-methyl-1H-pyrazole-5-carboxamide], for which the IC50 on IL-17A : IL-17RA binding was above 100 nM; in experiment [1] (Homo sapiens, Keratinocyte) it was 50 to 100 nM.

With `Cc1nonc1C(=O)NC(CC(C)(C)C(F)(F)F)c1nc2cc([C@@H](C)NC(=O)CCC(F)(F)F)ccc2[nH]1` (single isomer, unassigned) [Example 198, 4-Methyl-N—((S*)-4,4,4-trifluoro-3,3-dimethyl-1-(5-((R)-1-(4,4,4-trifluorobutanamido)ethyl)-1H-benzo[d]imidazol-2-yl)butyl)-1,2,5-oxadiazole-3-carboxamide], the half-maximal inhibitory concentration (IC50) at IL-17A : IL-17RA binding is 50 to 100 nM; in experiment [1] (Homo sapiens, Keratinocyte) it was above 100 nM.

Regarding `CCC(NC(=O)CCC(F)(F)F)c1ccc2[nH]c([C@@H](NC(=O)c3ccnn3C)C3CCC(F)(F)CC3)nc2c1` (single isomer, unassigned) [Example 52, N—((S)-(4,4-Difluorocyclohexyl)(5-((S*)-1-(4,4,4-trifluorobutanamido)propyl)-1H-benzo[d]imidazol-2-yl)methyl)-1-methyl-1H-pyrazole-5-carboxamide], the half-maximal inhibitory concentration (IC50) was above 100 nM at IL-17A : IL-17RA binding and above 100 nM in experiment [1] (Homo sapiens, Keratinocyte).

Turning to `CC(NC(=O)CCC(F)(F)F)c1ccc2nc([C@H](CC(C)(C)C(F)(F)F)NC(=O)c3ccnn3C(C)C)[nH]c2c1` (single isomer, unassigned) [Example 231, 1-Isopropyl-N—((S)-4,4,4-trifluoro-3,3-dimethyl-1-(6-((S*)-1-(4,4,4-trifluorobutanamido)ethyl)-1H-benzo[d]imidazol-2-yl)butyl)-1H-pyrazole-5-carboxamide], the half-maximal inhibitory concentration (IC50) at IL-17A : IL-17RA binding was above 100 nM; in experiment [1] (Homo sapiens, Keratinocyte), above 100 nM.

As usually defined, the IC50 is the point on the concentration scale where inhibition reaches its midpoint.
